Common to all, as to experiment: MIC determination (culture tube dilution) against veterinary pathogens
Assay type in all cases: cell-based

In one experiment the test system is A. pleuropneumoniae. The settings on record: Actinobacillus pleuropneumoniae, one range summarising both compounds. Here is the method:
(§1) The antibacterial activity of representative 9a-azalides against a panel of veterinary pathogens was determined by the minimum inhibitory concentration (MIC) method well known in the art. This is done by preparing a series of culture tubes, each containing a medium with a different concnetration of the antimicrobial agent, and inoculating all the tubes with the same organism. The lowest concentration of agent that completely prevents the appearance of turbidity is noted, and this concentration is called the MIC.

In the next experiment the test system is E. coli. The settings on record: Escherichia coli, one range summarising both compounds. How it is done: as §1
Another experiment has as its system H. somnus. The conditions noted are these: one range summarising both compounds. Here is the method:
as §1

The test system of the next experiment is P. haemolytica. The settings on record: Mannheimia haemolytica, one range summarising both compounds. Here is the method:
as §1

In the next experiment the test system is P. multocida. The settings on record: Pasteurella multocida, one range summarising both compounds. How it is done:
as §1

For a further experiment, the system named is Salmonella spp. The settings on record: one range summarising both compounds. How it is done: as §1

≈ marks a conversion by molar mass, not a printed value.

On to `CC[C@H]1OC(=O)[C@H](C)[C@@H](O[C@H]2C[C@@](C)(OC)[C@@H](N)[C@H](C)O2)[C@H](C)[C@@H](O[C@@H]2O[C@H](C)C[C@H](N(C)C)[C@H]2O)[C@](C)(O)C[C@@H](C)CN(C)[C@H](C)[C@@H](O)[C@]1(C)O` [4"-deoxy-4"-aminoazithromycin], for which the MIC with A. pleuropneumoniae is 0.062 to 0.5 µg/mL (≈ 0.0829 to 0.668 µM); with E. coli, 0.5 to 16 µg/mL (≈ 0.668 to 21.4 µM); against H. somnus it was 0.062 to 0.25 µg/mL (≈ 0.0829 to 0.334 µM); with P. haemolytica, 0.125 to 0.5 µg/mL (≈ 0.167 to 0.668 µM); against P. multocida, 0.125 to 2 µg/mL (≈ 0.167 to 2.67 µM); against Salmonella spp. it was 1 to 16 µg/mL (≈ 1.34 to 21.4 µM).
Consider `CC[C@H]1OC(=O)[C@H](C)[C@@H](O[C@H]2C[C@@](C)(OC)[C@@H](O)[C@H](C)O2)[C@H](C)[C@@H](O[C@@H]2O[C@H](C)C[C@H](N(C)C)[C@H]2O)[C@](C)(O)C[C@@H](C)CN(C)[C@H](C)[C@@H](O)[C@]1(C)O` [azithromycin, 9-deoxo-9a-aza-9a-methyl-9a-homoerythromycin A], for which the MIC against A. pleuropneumoniae lay in the range of 0.062 to 0.5 µg/mL (≈ 0.0828 to 0.668 µM); in the experiment with E. coli, 0.5 to 16 µg/mL (≈ 0.668 to 21.4 µM); with H. somnus, 0.062 to 0.25 µg/mL (≈ 0.0828 to 0.334 µM); against P. haemolytica, 0.125 to 0.5 µg/mL (≈ 0.167 to 0.668 µM); against P. multocida it was 0.125 to 2 µg/mL (≈ 0.167 to 2.67 µM); against Salmonella spp., 1 to 16 µg/mL (≈ 1.34 to 21.4 µM).

By MIC is commonly meant the least concentration at which growth counts as inhibited. High values mean a less susceptible organism, low ones a more susceptible organism.

Source of the values: patent publication EP1779853A2, “9a-azalides as veterinary antimicrobial agents” (Merial Ltd., priority 1997, dated 1999).
